According to patent publication US8084470B2, “Substituted nicotinamide compounds and uses thereof” (Gruenenthal GmbH, priority 2007, dated 2011):

What follows are compounds tested against hKCNQ2/3 (Homo sapiens, UniProt O43525+O43526) (assay: Fluorescence assay using a voltage sensitive dye).
Type: cell-based
Set-up: expressed in transfected cells; host or cells: CHO-K1
Experimental: Biological Data Fluorescence Assay Using a Voltage Sensitive Dye
Human CHO-K1 cells expressing KCNQ2/3 channels are cultivated adherently at 37° C., 5% CO2 and 95% humidity in cell culture bottles (e.g. 80 cm^2 TC flasks, Nunc) with DMEM-high glucose (Sigma Aldrich, D7777) including 10% FCS (PAN Biotech, e.g. 3302-P270521) or alternatively with MEM Alpha Medium (1×, liquid, Invitrogen, #22571), 10% fetal calf serum (FCS) (Invitrogen, #10270-106, heat-inactivated) and the necessary selection antibiotics.
Before being distributed for the measurements, the cells are washed with a 1×DPBS buffer without Ca^2+/Mg^2+ (e.g. Invitrogen, #14190-094) and detached from the bottom of the culture vessel by means of Accutase (PAA Laboratories, #L11-007) (incubation with Accutase for 15 min at 37° C.). The cell count then present is determined using a CASY™ cell counter (TCC model, Schärfe System) in order subsequently to apply, according to density optimization for the individual cell line, 20,000-30,000 cells/well/100 μl of the described nutrient medium to 96-well measuring plates of the Corning™ CellBIND™ type (Flat Clear Bottom Black Polystyrene Microplates, #3340). Incubation is then carried out for one hour at room temperature, without gassing or adjusting the humidity, followed by incubation for 24 hours at 37° C., 5% CO2 and 95% humidity.
The voltage-sensitive fluorescent dye from the Membrane Potential Assay Kit (Red™ Bulk format part R8123 for FLIPR, MDS Analytical Technologies™) is prepared by dissolving the contents of a vessel Membrane Potential Assay Kit Red Component A in 200 ml of extracellular buffer (ES buffer, 120 mM NaCl, 1 mM KCl, 10 mM HEPES, 2 mM CaCl2, 2 mM MgCl2, 10 mM glucose; pH 7.4). After removal of the nutrient medium, the cells are washed with 200 μl of ES buffer, then covered with a layer of 100 μl of the dye solution prepared above and incubated for 45 min at room temperature with the exclusion of light.
The fluorescence measurements are carried out with a BMG Labtech FLUOstar™ or BMG Labtech NOVOstar™ or BMG Labtech POLARstar™ instrument (525 nm excitation, 560 nm emission, Bottom Read mode). After incubation of the dye, 50 μl of the test substances in the desired concentrations, or 50 μl of ES buffer for control purposes, are introduced into separate cavities of the measuring plate and incubated for 30 min at room temperature while being shielded from light. The fluorescence intensity of the dye is then measured for 5 min and the fluorescence value F1 of each well is thus determined at a given, constant time. 15 μL of a 100 mM KCl solution ([…]) are then added to each well. The change in fluorescence is subsequently measured until all the relevant measured values have been obtained (mainly 5-30 min). At a given time after KCl application, a fluorescence value F2 is determined, in this case at the time of the fluorescence peak.
For calculation, the fluorescence intensity F2 is compared with the fluorescence intensity F1, and the agonistic activity of the target compound on the potassium channel is determined therefrom. F2 and F1 are calculated as follows:
[formula] In order to determine whether a substance has an agonistic activity,
[formula] for example, can be compared with
[formula] of control cells.
[formula] is determined by adding to the reaction batch only the buffer solution instead of the substance to be tested, determining the value F1K of the fluorescence intensity, adding the potassium ions as described above and measuring a value F2K of the fluorescence intensity. Then F2K and F1K are calculated as follows:
[formula] A substance has an agonistic activity on the potassium channel when
[formula] is greater than
[formula] Independently of the comparison of
[formula] it is also possible to conclude that a target compound has agonistic activity if an increase in
[formula] is to be observed as the dosage of the target compound increases. […]

Compound	EC50 [nM]
Cc1ccc(CNC(=O)c2cccnc2SCCS(=O)(=O)c2ccccc2)cc1 [Example 5, N-(4-methylbenzyl)-2-(2-(phenylsulfonyl)ethylthio)-nicotinamide]	1860
O=C(NCc1cc(F)cc(F)c1)c1cccnc1SCCS(=O)(=O)c1ccccc1 [Example 8, N-(3,5-difluorobenzyl)-2-(2-(phenylsulfonyl)ethylthio)nicotinamide]	1280
O=C(NCc1ccccc1F)c1cccnc1SCCS(=O)(=O)c1ccccc1 [Example 11, N-(2-fluorobenzyl)-2-(2-(phenylsulfonyl)ethylthio)nicotinamide]	1170
O=C(NCc1ccc(F)c(F)c1)c1cccnc1SCCS(=O)(=O)c1ccccc1 [Example 12, N-(3,4-difluorobenzyl)-2-(2-(phenylsulfonyl)ethylthio)nicotinamide]	1800
CN(Cc1cccc(Br)c1)C(=O)c1cccnc1SCCS(=O)(=O)c1ccccc1 [Example 13, N-(3-bromobenzyl)-N-methyl-2-(2-(phenylsulfonyl)ethylthio)nicotinamide]	1400
O=C(NCc1cccc(F)c1)c1cccnc1SCCS(=O)(=O)c1ccccc1 [Example 15, N-(3-fluorobenzyl)-2-(2-(phenylsulfonyl)ethylthio)nicotinamide]	2480
COc1ccc(CNC(=O)c2cccnc2SCCS(=O)(=O)c2ccccc2)cc1 [Example 17, N-(4-methoxybenzyl)-2-(2-(phenylsulfonyl)ethylthio)nicotinamide]	6520
O=C(NCc1ccc(Cl)c(Cl)c1)c1cccnc1SCCS(=O)(=O)c1ccccc1 [Example 19, N-(3,4-dichlorobenzyl)-2-(2-(phenylsulfonyl)ethylthio)nicotinamide]	1270
O=C(NCc1ccc(F)cc1)c1cccnc1SCCS(=O)(=O)c1ccccc1 [Example 20, N-(4-fluorobenzyl)-2-(2-(phenylsulfonyl)ethylthio)nicotinamide]	1280
O=C(NCc1cccc(Cl)c1)c1cccnc1SCCS(=O)(=O)c1ccccc1 [Example 25, N-(3-chlorobenzyl)-2-(2-(phenylsulfonyl)ethylthio)nicotinamide]	1280
Cc1ccc(S(=O)(=O)CCSc2ncccc2C(=O)NCc2cccs2)cc1 [Example 36, N-(thiophen-2-ylmethyl)-2-(2-tosylethylthio)nicotinamide]	4110
Cc1ccc(S(=O)(=O)CCSc2ncccc2C(=O)NCc2ccco2)cc1 [Example 39, N-(furan-2-ylmethyl)-2-(2-tosylethylthio)nicotinamide]	6090
Cc1ccc(S(=O)(=O)CCSc2ncccc2C(=O)NCc2cc(F)cc(F)c2)cc1 [Example 41, N-(3,5-difluorobenzyl)-2-(2-tosylethylthio)nicotinamide]	2390
Cc1ccc(S(=O)(=O)CCSc2ncccc2C(=O)NCc2ccccc2F)cc1 [Example 43, N-(2-fluorobenzyl)-2-(2-tosylethylthio)nicotinamide]	1970
Cc1ccc(S(=O)(=O)CCSc2ncccc2C(=O)NCc2cccc(C)c2)cc1 [Example 44, N-(3-methylbenzyl)-2-(2-tosylethylthio)nicotinamide]	2230
Cc1ccc(S(=O)(=O)CCSc2ncccc2C(=O)NCc2ccc(F)c(F)c2)cc1 [Example 45, N-(3,4-difluorobenzyl)-2-(2-tosylethylthio)nicotinamide]	2140

Compound	EC50 [nM]
Cc1ccc(S(=O)(=O)CCSc2ncccc2C(=O)NCc2ccc(F)cc2)cc1 [Example 49, N-(4-fluorobenzyl)-2-(2-tosylethylthio)nicotinamide]	7600
Cc1ccc(S(=O)(=O)CCSc2ncccc2C(=O)NCc2cccc(Cl)c2)cc1 [Example 51, N-(3-chlorobenzyl)-2-(2-tosylethylthio)nicotinamide]	4120
Cc1ccc(S(=O)(=O)CCSc2ncccc2C(=O)NCc2cccc(C(F)(F)F)c2)cc1 [Example 52, 2-(2-tosylethylthio)-N-(3-(trifluoromethyl)benzyl)nicotinamide]	1820
O=C(NCc1ccccc1)c1cccnc1SCCS(=O)(=O)c1ccccc1 [Example 54, N-benzyl-2-(2-(phenylsulfonyl)ethylthio)nicotinamide]	2340
CN(Cc1ccccc1)C(=O)c1cccnc1SCCS(=O)(=O)c1ccccc1 [Example 55, N-benzyl-N-methyl-2-(2-(phenylsulfonyl)ethylthio)nicotinamide]	16500
CC(NC(=O)c1cccnc1SCCS(=O)(=O)c1ccccc1)c1cccc(C(F)(F)F)c1 (centres unmarked) [Example 57, 2-(2-(phenylsulfonyl)ethylthio)-N-(1-(3-(trifluoromethyl)phenyl)ethyl)-nicotinamide]	5700
CC(C)(C)CNC(=O)c1cccnc1SCCS(=O)(=O)c1ccccc1 [Example 60, N-(neopentyl)-2-(2-(phenylsulfonyl)ethylthio)nicotinamide]	9590
O=C(NCc1ccco1)c1cccnc1SCCS(=O)(=O)c1ccccc1 [Example 62, N-(furan-2-ylmethyl)-2-(2-(phenylsulfonyl)ethylthio)nicotinamide]	4390
O=C(NCc1ccc(SC(F)(F)F)cc1)c1cccnc1SCCS(=O)(=O)c1ccccc1 [Example 64, 2-(2-(phenylsulfonyl)ethylthio)-N-(4-(trifluoromethylthio)benzyl)-nicotinamide]	880
O=C(NCc1cccs1)c1cccnc1SCCS(=O)(=O)c1ccc(Cl)cc1 [Example 99, 2-[2-(4-chlorophenyl)sulfonylethylthio]-N-(2-thienylmethyl)-nicotinamide]	234
O=C(NCc1cccs1)c1cccnc1SCCS(=O)(=O)c1ccc(F)cc1 [Example 100, 2-[2-(4-fluorophenyl)sulfonylethylthio]-N-(2-thienylmethyl)-nicotinamide]	503
O=C(NCc1cccs1)c1cccnc1SCCS(=O)(=O)c1ccc(C(F)(F)F)cc1 [Example 102, N-(2-thienylmethyl)-2-[2-[4-(trifluoromethyl)phenyl]sulfonylethylthio]-nicotinamide]	197
Cc1cccc(SCCSc2ncccc2C(=O)NCc2cccs2)c1 [Example 105, 2-[2-(m-tolylthio)ethylthio]-N-(2-thienylmethyl)-nicotinamide]	168
O=C(NCc1cccs1)c1cccnc1SCCS(=O)(=O)c1cccc(F)c1 [Example 106, 2-[2-(3-fluorophenyl)sulfonylethylthio]-N-(2-thienylmethyl)-nicotinamide]	187
CC(C)(C)CCNC(=O)c1cccnc1SCCS(=O)(=O)c1ccccc1 [Example 107, 2-[2-(benzenesulfonyl)ethylthio]-N-(3,3-dimethylbutyl)-nicotinamide]	1420
O=C(NCc1cccs1)c1cccnc1SCCSc1ccccc1 [Example 109, 2-[2-(phenylthio)ethylthio]-N-(2-thienylmethyl)-nicotinamide]	75
